Results reported in article PMC3134468, “Functions of Some Capsular Polysaccharide Biosynthetic Genes in Klebsiella pneumoniae NTUH K-2044” (PLoS ONE, 2011).

Biological target: T1, WcaG (KP3709) (Klebsiella pneumoniae, UniProt A0ACD7U4D6)
T1 construct: His-tagged (pET28a), expressed in E. coli BL21 star (DE3)
Assay: HPLC product analysis
Assay type: biochemical
Conditions: coupled with Gmd from GDP-mannose, pH 8.0
From the text: HPLC product analysis on WcaG (KP3709) | GDP-mannose+NADPH+KP3711+KP3709

NC(=O)C1=CN([C@@H]2O[C@H](COP(=O)(O)OP(=O)(O)OC[C@H]3O[C@@H](n4cnc5c(N)ncnc54)[C@H](OP(=O)(O)O)[C@@H]3O)[C@@H](O)[C@H]2O)C=CC1 [NADPH]
HPLC product analysis: GDP-mannose+NADPH+KP3711+KP3709
